Results reported in patent US20240408106A1, “BI-FUNCTIONAL COMPOUNDS AND METHODS FOR TARGETED UBIQUITINATION OF ANDROGEN RECEPTOR” (MONTELINO THERAPEUTICS, INC., priority 2021, published 2024).

The compounds below were run on human prostate cancer cell line, 22Rv1-Enz^R (assay: 22Rv1-Enz^R cell proliferation assay). Details: half maximal growth inhibition constant, 22Rv1-Enz^R cells, 6-day culture with cell media changed every 24 hours, read-out: 22Rv1-Enz^R proliferation assay GIC50.
Type: cell-based
Procedure: The human prostate cancer cell line, 22Rv1 has been reported to express a high level of AR-V7. According to one procedure, 22Rv1 is seeded at 50,000 cells/well on a 24-well plate in quadruplicate and treated with test compounds in concentrations ranging up to 20 μM for four days. Standard culture media is RPMI-1640 supplemented with 10% fetal bovine serum. The test compound initially is dissolved in DMSO at 50 mM. This stock solution is then diluted as needed for the indicated concentrations. At the end of the four-day period, cells are harvested using 1% trypsin and counted using an automated cell counter.
Selected compounds may be tested in the human prostate cancer cell line, 22Rv1-Enz^R, as described in Geun Taek Lee et al., Molecular Cancer Therapeutics, 20:490-9 (2021). These procedures are similar to that described in Experimental Example 1, above, except that the assay conditions are a 6-day culture with cell media changed every 24 hours.
In the following Table (half maximal growth inhibition constant, GIC50): (+)-GIC50<200 μM; (++)-GIC50<100 μM; (+++)-GIC50<10 μM.

SMILES	IC50
Cc1ncsc1-c1ccc([C@H](C)NC(=O)[C@@H]2C[C@@H](O)CN2C(=O)[C@@H](NC(=O)CN2CCN(C(=O)COc3c(-c4csc(N5CCOCC5)n4)ccc(F)c3F)CC2)C(C)(C)C)cc1 [Example 1, (2S,4R)-1-((S)-2-(2-(4-(2-(2,3-difluoro-6-(2-morpholinothiazol-4-yl)phenoxy)acetyl)piperazin-1-yl)acetamido)-3,3-dimethylbutanoyl)-4-hydroxy-N-((S)-1-(4-(4-methylthiazol-5-yl)phenyl)ethyl)pyrrolidine-2-carboxamide]	< 10 µM
Cc1ncsc1-c1ccc([C@H](C)NC(=O)[C@@H]2C[C@@H](O)CN2C(=O)[C@@H](NC(=O)CCN2CCN(C(=O)COc3c(-c4csc(N5CCOCC5)n4)ccc(F)c3F)CC2)C(C)(C)C)cc1 [Example 2, (2S,4R)-1-((S)-2-(3-(4-(2-(2,3-difluoro-6-(2-morpholinothiazol-4-yl)phenoxy)acetyl)piperazin-1-yl)propanamido)-3,3-dimethylbutanoyl)-4-hydroxy-N-((S)-1-(4-(4-methylthiazol-5-yl)phenyl)ethyl) pyrrolidine-2-carboxamide]	< 100 µM
Cc1ncsc1-c1ccc([C@H](C)NC(=O)[C@@H]2C[C@@H](O)CN2C(=O)[C@@H](NC(=O)CCC(=O)N2CCCC(NC(=O)COc3c(-c4csc(N5CCOCC5)n4)ccc(F)c3F)C2)C(C)(C)C)cc1 (stereo partly drawn) [Example 3, (2S,4R)-1-((2S)-2-(4-(3-(2-(2,3-difluoro-6-(2-morpholinothiazol-4-yl)phenoxy)acetamido)piperidin-1-yl)-4-oxobutanamido)-3,3-dimethylbutanoyl)-4-hydroxy-N-((S)-1-(4-(4-methylthiazol-5-yl)phenyl)ethyl)pyrrolidine-2-carboxamide]	< 10 µM
Cc1ncsc1-c1ccc([C@H](C)NC(=O)[C@@H]2C[C@@H](O)CN2C(=O)[C@@H](NC(=O)CCCCn2nncc2CCOc2c(-c3csc(N4CCOCC4)n3)ccc(F)c2F)C(C)(C)C)cc1 [Example 4, (2S,4R)-1-((S)-2-(5-(5-(2-(2,3-difluoro-6-(2-morpholinothiazol-4-yl)phenoxy)ethyl)-1H-1,2,3-triazol-1-yl)pentanamido)-3,3-dimethylbutanoyl)-4-hydroxy-N-((S)-1-(4-(4-methylthiazol-5-yl)phenyl)ethyl)pyrrolidine-2-carboxamide]	< 10 µM
Cc1ncsc1-c1ccc([C@H](C)NC(=O)[C@@H]2C[C@@H](O)CN2C(=O)[C@@H](NC(=O)CCC(=O)N[C@H]2C[C@H](Oc3c(-c4csc(N5CCOCC5)n4)ccc(F)c3F)C2)C(C)(C)C)cc1 [Example 5, N1-((1r,3S)-3-(2,3-difluoro-6-(2-morpholinothiazol-4-yl)phenoxy)cyclobutyl)-N4-((S)-1-((2S,4R)-4-hydroxy-2-(((S)-1-(4-(4-methylthiazol-5-yl)phenyl)ethyl)carbamoyl)pyrrolidin-1-yl)-3,3-dimethyl-1-oxobutan-2-yl)succinamide]	< 100 µM
COc1cc(C(=O)NCC2CCN(C(=O)COc3c(-c4csc(N5CCOCC5)n4)ccc(F)c3F)CC2)ccc1NC(=O)[C@@H]1N[C@@H](CC(C)(C)C)[C@](C#N)(c2ccc(Cl)cc2F)[C@H]1c1cccc(Cl)c1F [Example 7, (2R,3S,4R,5S)-3-(3-chloro-2-fluorophenyl)-4-(4-chloro-2-fluorophenyl)-4-cyano-N-(4-(((1-(2-(2,3-difluoro-6-(2-morpholinothiazol-4-yl)phenoxy)acetyl)piperidin-4-yl)methyl)carbamoyl)-2-methoxyphenyl)-5-neopentylpyrrolidine-2-carboxamide]	< 200 µM
COc1cc(C(=O)NCCN2CCN(C(=O)COc3c(-c4csc(N5CCOCC5)n4)ccc(F)c3F)CC2)ccc1NC(=O)[C@@H]1N[C@@H](CC(C)(C)C)[C@](C#N)(c2ccc(Cl)cc2F)[C@H]1c1cccc(Cl)c1F [Example 8, (2R,3S,4R,5S)-3-(3-chloro-2-fluorophenyl)-4-(4-chloro-2-fluorophenyl)-4-cyano-N-(4-((2-(4-(2-(2,3-difluoro-6-(2-morpholinothiazol-4-yl)phenoxy)acetyl)piperazin-1-yl)ethyl)carbamoyl)-2-methoxyphenyl)-5-neopentylpyrrolidine-2-carboxamide]	< 100 µM
COc1cc(C(=O)N2CCC(NC(=O)COc3c(-c4csc(N5CCOCC5)n4)ccc(F)c3F)CC2)ccc1NC(=O)[C@@H]1N[C@@H](CC(C)(C)C)[C@](C#N)(c2ccc(Cl)cc2F)[C@H]1c1cccc(Cl)c1F [Example 9, (2R,3S,4R,5S)-3-(3-chloro-2-fluorophenyl)-4-(4-chloro-2-fluorophenyl)-4-cyano-N-(4-(4-(2-(2,3-difluoro-6-(2-morpholinothiazol-4-yl)phenoxy)acetamido)piperidine-1-carbonyl)-2-methoxyphenyl)-5-neopentylpyrrolidine-2-carboxamide]	< 200 µM
COc1cc(C(=O)NCCOCCn2cc(CCOc3c(-c4csc(N5CCOCC5)n4)ccc(F)c3F)nn2)ccc1NC(=O)[C@@H]1N[C@@H](CC(C)(C)C)[C@](C#N)(c2ccc(Cl)cc2F)[C@H]1c1cccc(Cl)c1F [Example 10, (2R,3S,4R,5S)-3-(3-chloro-2-fluorophenyl)-4-(4-chloro-2-fluorophenyl)-4-cyano-N-(4-((2-(2-(4-(2-(2,3-difluoro-6-(2-morpholinothiazol-4-yl)phenoxy)ethyl)-1H-1,2,3-triazol-1-yl)ethoxy)ethyl)carbamoyl)-2-methoxyphenyl)-5-neopentylpyrrolidine-2-carboxamide]	< 100 µM
